# Reference: patent US20220096706A1, “ELECTROSPUN NANOFIBER-BASED DRESSINGS AND METHODS OF MANUFACTURE AND USE THEREOF” (BOARD OF REGENTS OF THE UNIVERSITY OF NEBRASKA, priority 2019, published 2022)
# Non-standard residues stand in square brackets, D forms with d. No end group written: not given here. Bip = N[C@@H](Cc1ccc(-c2ccccc2)cc1)C(=O)O
# Experiments:
# [1] = system: MRSA biofilms; assay: In vivo antibiofilm efficacy test, MRSA biofilm wounds (B6.BKS(D)-Leprdb/J mice); design: species or system type II diabetic mice; details: 24 hours and 48 hours inoculation followed by 24 hour treatment of 2% mupirocin ointment
# Description: A biofilm-containing chronic wound model was established. Briefly, MRSA was grown in TSB overnight. Subsequently, 100 μL of bacterial strain was pipetted into 4 mL of fresh TSB medium and cultivated for 3 hours followed by PBS washing for three times. Then, the bacterial concentration was adjusted to 1×10^8 CFU/mL and stored in the ice box before use. Nine […] 000697-B6.BKS(D)-Leprdb/J diabetic defective mice (male, 10-11 weeks, 50-55 g, GLU>200 mg/dL) fed with standard pellet diet and water were used.
# The biofilm was established in 000697-B6.BKS(D)-Leprdb/J mice excisional wounds. […]
# After the biofilm formation was performed, F127/17BIPHE2-PCL-S core-shell nanofiber membranes or Janus-type dressings were put on the wound, different dressing changes strategies were applied to treat the biofilm formed wound. […] All the dishes were inoculated in a 37° C. microbial incubator for 18 hours, and the CFU numbers were counted.
# To further evaluate the anti-biofilm efficacy, MRSA biofilms were established in type II diabetic mice wounds (FIG. 21). […] The CFU of MRSA biofilms (10^10-10^12 CFU/g) formed after 24 hours and 48 hours of bacteria inoculation and removal of planktonic bacteria was quantified (FIG. 21B). […]
# [2] = system: MRSA; assay: Antibiotic agar inhibition (MRSA inhibition zone) test; type: cell-based, Staphylococcus aureus; details: FIG. 6E
# [3] = system: MRSA USA300 biofilm; type: in vivo, type II diabetic mice; details: 24 hours MRSA inoculation and subsequent 24 hour mupirocin 2% treatment
# Description: Briefly, MRSA was grown in TSB overnight. Subsequently, 100 μL bacterial strain was pipetted into 4 mL fresh TSB medium for 3 hours followed by PBS washing for three times. Then, the bacterial concentration was adjusted to 1×10^8 CFU/mL and stored in the ice box before use. One hundred female 005314-TALLYHO/JngJ diabetic defective mice (10-11 weeks, 30-35 g, GLU>200 mg/dL) fed with standard pellet diet and water were used.
# The biofilm was established in 005314-TALLYHO/JngJ mice excisional wounds. Two 6 mm-diameter full thickness wounds were created on the back of a mouse using a disposable biopsy punch (Integra Miltex®, Kai Medical, USA) and fixed with a wound splint (Grace Bio-labs, Inc, Bend, Oreg.). The wounds were all inoculated with 10 μL of 1×10^8 CFU/mL MRSA instantly after surgery, and mupirocin 2% was applied to treat the wounds at day 2 (24 hours after surgery). Then, the surrounding and wound tissue was collected using an 8 mm-diameter punch and the biofilm was confirmed by CFU count, LIVE/DEAD® staining and SEM observation.
# The biofilm formation was performed as above-mentioned. The mice were then divided into control groups and peptide groups. Control groups' wounds were treated with 6-mm diameter F127-PCL core-shell nanofiber discs alone. […] All the dishes were inoculated in a 37° C. microbial incubator for 18 hours and the CFU numbers were counted. […]
# [4] = system: S. aureus USA300; details: compared to either LL-37 or GF-17; cited from earlier work
# [5] = system: Staphylococcus aureus USA300; details: cited from earlier work
# [6] = system: resistant ESKAPE pathogens, including persisters and biofilms; details: cited from earlier work
# [7] = in biofilm; Lawrence, et al. (1994); cited from earlier work
compound,measurement,setting,value
"C/C(=C\C(=O)OCCCCCCCCC(=O)O)C[C@@H]1OC[C@H](C[C@@H]2O[C@H]2[C@@H](C)[C@H](C)O)[C@@H](O)[C@H]1O [mupirocin 2%, mupirocin]",CFU of MRSA biofilms,[1],10^10-10^12 CFU/g
same,killing of planktonic bacteria in antibiotic agar inhibition test,[2],kill the planktonic bacteria very effectively
same,bacteria resided on surgical site and surrounding tissues,[3],10^10 CFU/g
"GX1KRLVQRLKDX2LRNLV, wherein X1 and X2 are biphenylalanines (SEQ ID NO: 2) (G[Bip]KRLVQRLKD[Bip]LRNLV) [17BIPHE2, molecularly engineered human cathelicidin LL-37 peptide]",protection of wax moths from S. aureus USA300 infection,[4],optimized protection
LL-37,inhibition of bacterial attachment / disruption of preformed biofilms,"[5]; Mishra, et al. (2016)",unable to inhibit bacterial attachment or disrupt preformed biofilms
same,inhibition of biofilm growth of Staphylococcus aureus USA300,"[5]; in vitro, Haisma, et al. (2014)",only at a low concentration
"RRRWWWWV; SEQ ID NO: 7 (Antimicrobial peptide) [W379, peptide with merely eight amino acids]",antimicrobial activity against resistant ESKAPE pathogens,[6],antimicrobial activity
same,diffusion coefficient of peptides (D),[7],3.1×10^−12 m^2/s
